How the values were obtained:
MOOVA (Monochoria) = test: Preemergence weed control under flooded paddy conditions; type: in vivo, Monochoria vaginalis; details: rated 3-4 weeks after treatment
Outline: (§1)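 Visual injury scored 0-9 against control three to four weeks post-treatment, greenhouse-grown. Application: acetone/water (50/50) solutions dosed directly into flood water (1.5-3 cm over silt loam, planted top 0.5 cm), roughly 0.0313 to 0.500 kg/ha active ingredient.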

ZEAMX (Corn, Field) = test: Preemergence herbicidal evaluation; type: in vivo, Zea mays; details: rated 4-5 weeks after treatment
Outline: (§2)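 Seeds were mixed with potting soil and planted on about one inch of soil, then sprayed with test compound in aqueous acetone at about 0.0156 to 0.500 kg per hectare. Plants grew under standard greenhouse care and were visually rated 0-9 against untreated controls 4-5 weeks post-treatment.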

[1] = system: GLXMAW (Soybean, Williams); test: Preemergence herbicidal evaluation; type: in vivo, Glycine max, (L.) Merr. cv Williams; details: rated 4-5 weeks after treatment
Outline: as §2

GALAP (Galium) = test: Postemergence herbicidal evaluation; type: in vivo, Galium aparine; details: postemergence
Outline: (§3)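 Rate range approx. 0.0156–0.500 kg/ha. Foliar application at 40 psi to ~2-week seedlings; surfactant 0.5% TWEEN 20 in 50/50 acetone/water. Evaluation 4–5 wk post-treatment by 0–9 visual injury score, means of replicate tests.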

CASOB (Sicklepod) [2] = test: Preemergence herbicidal evaluation; type: in vivo, Cassia obtusifolia; details: rated 4-5 weeks after treatment
Outline: as §2

AMBEL (Ragweed, Common) = test: Postemergence herbicidal evaluation; type: in vivo, Ambrosia artemisifolia; details: postemergence
Outline: as §3

[3] = system: IPOHE (Morningglory, Ivyleaf); test: Postemergence herbicidal evaluation; type: in vivo, Ipomoea hederacea; details: postemergence
Outline: as §3

ABUTH (Velvetleaf) = test: Preemergence herbicidal evaluation; type: in vivo, Abutilon theophrasti; details: rated 4-5 weeks after treatment
Outline: as §2

CASOB (Sicklepod) [4] = test: Postemergence herbicidal evaluation; type: in vivo, Cassia obtusifolia; details: postemergence
Outline: as §3

[5] = system: SAGPY (Arrowhead (Pygmaea)); test: Preemergence weed control under flooded paddy conditions; type: in vivo, Sagittaria pygmaea; details: rated 3-4 weeks after treatment
Outline: as §1

ECHCG (Barnyardgrass) = test: Preemergence herbicidal evaluation; type: in vivo, Echinochloa crus-galli; details: rated 4-5 weeks after treatment
Outline: as §2

[6] = system: IPOHE (Morningglory, Ivyleaf); test: Preemergence herbicidal evaluation; type: in vivo, Ipomoea hederacea; details: rated 4-5 weeks after treatment
Outline: as §2

[7] = system: TRZAWR (Wheat, Winter, cv Riband); test: Preemergence herbicidal evaluation; type: in vivo, Triticum aestivum; details: rated 4-5 weeks after treatment
Outline: as §2

[8] = rate 0.0313 kg/ha, rating scale 0-9
[9] = rate 0.0625 kg/ha, rating scale 0-9
[10] = rate 0.1250 kg/ha, rating scale 0-9
[11] = rate 0.2500 kg/ha, rating scale 0-9

CCOC(=O)CN1C(=O)C(COC)SC1=Nc1cc(-n2c(=O)cc(C(F)(F)F)n(C)c2=O)c(F)cc1Cl (stereo not drawn) [Compound 156, Ethyl 2-{{2-chloro-5-[3,6-dihydro-3-methyl-2,6-dioxo-4-(trifluoromethyl)-1(2H)-pyrimidinyl]-4-fluorophenyl}imino}-5-(methoxymethyl)-4-oxo-3-thiazolidine-acetate]
herbicidal effect rating, MOOVA (MOOVA (Monochoria); 0.2500 kg/ha): 0.0 | Preemergence herbicidal rating ZEAMX (ZEAMX (Corn, Field); [8]): 0.0 | Preemergence herbicidal rating ZEAMX (ZEAMX (Corn, Field); [9]): 1.0 | Preemergence herbicidal rating ZEAMX (ZEAMX (Corn, Field); [10]): 2.0 | Preemergence herbicidal rating ZEAMX (ZEAMX (Corn, Field); [11]): 5.0 | Preemergence herbicidal rating GLXMAW [1, 8]: 0.0 | Preemergence herbicidal rating GLXMAW [1, 9]: 0.0 | Preemergence herbicidal rating GLXMAW [1, 10]: 0.0 | Preemergence herbicidal rating GLXMAW [1, 11]: 7.0 | Herbicidal rating GALAP (GALAP (Galium); rate 0.0156 kg/ha): 0.0 | Herbicidal rating GALAP (GALAP (Galium); rate 0.0313 kg/ha): 0.0 | Herbicidal rating GALAP (GALAP (Galium); rate 0.0625 kg/ha): 3.0 | Preemergence herbicidal rating CASOB (CASOB (Sicklepod) [2]; [8]): 0.0 | Preemergence herbicidal rating CASOB (CASOB (Sicklepod) [2]; [9]): 0.0 | Preemergence herbicidal rating CASOB (CASOB (Sicklepod) [2]; [11]): 0.0 | Herbicidal rating AMBEL (AMBEL (Ragweed, Common); rate 0.0156 kg/ha): 7.0 | Herbicidal rating AMBEL (AMBEL (Ragweed, Common); rate 0.0313 kg/ha): 7.0 | Herbicidal rating AMBEL (AMBEL (Ragweed, Common); rate 0.0625 kg/ha): 9.0 | Herbicidal rating IPOHE ([3]; rate 0.0156 kg/ha): 9.0 | Herbicidal rating IPOHE ([3]; rate 0.0313 kg/ha): 9.0 | Herbicidal rating IPOHE ([3]; rate 0.0625 kg/ha): 9.0 | Preemergence herbicidal rating ABUTH (ABUTH (Velvetleaf); [8]): 4.0 | Preemergence herbicidal rating ABUTH (ABUTH (Velvetleaf); [9]): 9.0 | Preemergence herbicidal rating ABUTH (ABUTH (Velvetleaf); [10]): 9.0 | Preemergence herbicidal rating ABUTH (ABUTH (Velvetleaf); [11]): 9.0 | Herbicidal rating CASOB (CASOB (Sicklepod) [4]; rate 0.0156 kg/ha): 0.0 | Herbicidal rating CASOB (CASOB (Sicklepod) [4]; rate 0.0313 kg/ha): 0.0 | Herbicidal rating CASOB (CASOB (Sicklepod) [4]; rate 0.0625 kg/ha): 1.0 | herbicidal effect rating, SAGPY ([5]; 0.2500 kg/ha): 0.0 | Preemergence herbicidal rating ECHCG (ECHCG (Barnyardgrass); [8]): 0.0 | Preemergence herbicidal rating ECHCG (ECHCG (Barnyardgrass); [9]): 0.0 | Preemergence herbicidal rating ECHCG (ECHCG (Barnyardgrass); [10]): 0.0 | Preemergence herbicidal rating ECHCG (ECHCG (Barnyardgrass); [11]): 0.0 | Preemergence herbicidal rating IPOHE [6, 8]: 0.0 | Preemergence herbicidal rating IPOHE [6, 9]: 3.0 | Preemergence herbicidal rating IPOHE [6, 10]: 9.0 | Preemergence herbicidal rating IPOHE [6, 11]: 9.0 | Preemergence herbicidal rating TRZAWR [7, 8]: 0.0 | Preemergence herbicidal rating TRZAWR [7, 9]: 0.0 | Preemergence herbicidal rating TRZAWR [7, 10]: 0.0 | Preemergence herbicidal rating TRZAWR [7, 11]: 3.0

CC(C)OC(=O)CN1C(=O)CSC1=Nc1cc(-n2c(=O)cc(C(F)(F)F)n(C)c2=O)c(F)cc1Cl [Compound 110]
MOOVA herbicidal effect rating (MOOVA (Monochoria); 0.0313 kg/ha): 9.0 | MOOVA herbicidal effect rating (MOOVA (Monochoria); 0.0625 kg/ha): 9.0 | MOOVA herbicidal effect rating (MOOVA (Monochoria); 0.1250 kg/ha): 9.0 | MOOVA herbicidal effect rating (MOOVA (Monochoria); 0.2500 kg/ha): 9.0 | Preemergence herbicidal rating ZEAMX (ZEAMX (Corn, Field); rate 0.0156 kg/ha): 0.0 | Preemergence herbicidal rating ZEAMX (ZEAMX (Corn, Field); rate 0.0313 kg/ha): 0.5 | Preemergence herbicidal rating ZEAMX (ZEAMX (Corn, Field); rate 0.0625 kg/ha): 1.0 | Preemergence herbicidal rating ZEAMX (ZEAMX (Corn, Field); rate 0.1250 kg/ha): 2.5 | Preemergence herbicidal rating ZEAMX (ZEAMX (Corn, Field); rate 0.2500 kg/ha): 3.5 | Preemergence herbicidal rating ZEAMX (ZEAMX (Corn, Field); rate 0.5000 kg/ha): 4.0 | Preemergence herbicidal rating GLXMAW ([1]; rate 0.0156 kg/ha): 0.5 | Preemergence herbicidal rating GLXMAW ([1]; rate 0.0313 kg/ha): 0.5 | Preemergence herbicidal rating GLXMAW ([1]; rate 0.0625 kg/ha): 2.5 | Preemergence herbicidal rating GLXMAW ([1]; rate 0.1250 kg/ha): 4.0 | Preemergence herbicidal rating GLXMAW ([1]; rate 0.2500 kg/ha): 5.5 | Preemergence herbicidal rating GLXMAW ([1]; rate 0.5000 kg/ha): 7.0 | Herbicidal rating GALAP (GALAP (Galium); rate 0.0158 kg/ha): 1.0 | Herbicidal rating GALAP (GALAP (Galium); rate 0.0315 kg/ha): 3.0 | Herbicidal rating GALAP (GALAP (Galium); rate 0.0630 kg/ha): 4.0 | Preemergence herbicidal rating CASOB (CASOB (Sicklepod) [2]; rate 0.0156 kg/ha): 0.0 | Preemergence herbicidal rating CASOB (CASOB (Sicklepod) [2]; rate 0.0313 kg/ha): 0.0 | Preemergence herbicidal rating CASOB (CASOB (Sicklepod) [2]; rate 0.0625 kg/ha): 0.0 | Preemergence herbicidal rating CASOB (CASOB (Sicklepod) [2]; rate 0.1250 kg/ha): 2.0 | Preemergence herbicidal rating CASOB (CASOB (Sicklepod) [2]; rate 0.2500 kg/ha): 5.0 | Preemergence herbicidal rating CASOB (CASOB (Sicklepod) [2]; rate 0.5000 kg/ha): 9.0 | Herbicidal rating AMBEL (AMBEL (Ragweed, Common); rate 0.0158 kg/ha): 5.0 | Herbicidal rating AMBEL (AMBEL (Ragweed, Common); rate 0.0315 kg/ha): 4.0 | Herbicidal rating AMBEL (AMBEL (Ragweed, Common); rate 0.0630 kg/ha): 9.0 | Herbicidal rating IPOHE ([3]; rate 0.0158 kg/ha): 9.0 | Herbicidal rating IPOHE ([3]; rate 0.0315 kg/ha): 9.0 | Herbicidal rating IPOHE ([3]; rate 0.0630 kg/ha): 9.0 | Preemergence herbicidal rating ABUTH (ABUTH (Velvetleaf); rate 0.0156 kg/ha): 5.5 | Preemergence herbicidal rating ABUTH (ABUTH (Velvetleaf); rate 0.0313 kg/ha): 9.0 | Preemergence herbicidal rating ABUTH (ABUTH (Velvetleaf); rate 0.0625 kg/ha): 9.0 | Preemergence herbicidal rating ABUTH (ABUTH (Velvetleaf); rate 0.1250 kg/ha): 9.0 | Preemergence herbicidal rating ABUTH (ABUTH (Velvetleaf); rate 0.2500 kg/ha): 9.0 | Preemergence herbicidal rating ABUTH (ABUTH (Velvetleaf); rate 0.5000 kg/ha): 9.0 | Herbicidal rating CASOB (CASOB (Sicklepod) [4]; rate 0.0158 kg/ha): 1.0 | Herbicidal rating CASOB (CASOB (Sicklepod) [4]; rate 0.0315 kg/ha): 1.0 | Herbicidal rating CASOB (CASOB (Sicklepod) [4]; rate 0.0630 kg/ha): 1.0 | SAGPY herbicidal effect rating ([5]; 0.0313 kg/ha): 6.0 | SAGPY herbicidal effect rating ([5]; 0.0625 kg/ha): 7.0 | SAGPY herbicidal effect rating ([5]; 0.1250 kg/ha): 7.0 | SAGPY herbicidal effect rating ([5]; 0.2500 kg/ha): 8.0 | Preemergence herbicidal rating ECHCG (ECHCG (Barnyardgrass); rate 0.0156 kg/ha): 0.0 | Preemergence herbicidal rating ECHCG (ECHCG (Barnyardgrass); rate 0.0313 kg/ha): 0.0 | Preemergence herbicidal rating ECHCG (ECHCG (Barnyardgrass); rate 0.0625 kg/ha): 0.5 | Preemergence herbicidal rating ECHCG (ECHCG (Barnyardgrass); rate 0.1250 kg/ha): 2.0 | Preemergence herbicidal rating ECHCG (ECHCG (Barnyardgrass); rate 0.2500 kg/ha): 3.0 | Preemergence herbicidal rating ECHCG (ECHCG (Barnyardgrass); rate 0.5000 kg/ha): 4.0 | Preemergence herbicidal rating IPOHE ([6]; rate 0.0156 kg/ha): 3.5 | Preemergence herbicidal rating IPOHE ([6]; rate 0.0313 kg/ha): 4.5 | Preemergence herbicidal rating IPOHE ([6]; rate 0.0625 kg/ha): 5.5 | Preemergence herbicidal rating IPOHE ([6]; rate 0.1250 kg/ha): 9.0 | Preemergence herbicidal rating IPOHE ([6]; rate 0.2500 kg/ha): 9.0 | Preemergence herbicidal rating IPOHE ([6]; rate 0.5000 kg/ha): 9.0 | Preemergence herbicidal rating TRZAWR ([7]; rate 0.0156 kg/ha): 0.0 | Preemergence herbicidal rating TRZAWR ([7]; rate 0.0313 kg/ha): 1.0 | Preemergence herbicidal rating TRZAWR ([7]; rate 0.0625 kg/ha): 1.0 | Preemergence herbicidal rating TRZAWR ([7]; rate 0.1250 kg/ha): 1.0 | Preemergence herbicidal rating TRZAWR ([7]; rate 0.2500 kg/ha): 1.0
